Assays:
Type in all cases: cell-based
DU-145 = assay: Cell growth inhibition assay, prostate cancer cell line DU-145; details: Homo sapiens, DU-145 prostate cancer cell line
Description: (§1) The inhibitory effects of the compounds of the present invention against the growth of cancer cells were evaluated as shown below. The cancer cell lines including stomach cancer cell line (AGS), breast cancer cell lines (MDA-MB-231, MDA-MB-468, and BT-549), prostate cancer cell lines (LNCaP and DU-145), colon cancer cell line (HCT116), ovarian cancer cell line (SW626), liver cancer cell line (Hep3B), kidney cancer cell line (ACHN), lung cancer cell line (NCI-H23) and blood cancer cell lines (HEL92.1.7 and U266) were cultured under the protocol provided by each supplier. A medium supplemented with 10 ng/mL of IL-6 was used for LNCaP, a prostate cancer cell line, when treated with a drug. Each type of cells to be used in experiments were sub-cultured in a 96-well plate by counting the exact number of cells using Tali™ Image-based Cytometer (Life Technologies). In a 96-well plate, AGS, HCT116, and DU-145 were employed with 3,000 cells/well; NCI-H23, SW626, Hep3B, ACHN, BT-549, MDA-MB-231, HEL92.1.7, and U266 were employed with 5,000 cells/well; and LNCaP and MDA-MB-468 were employed with 10,000 cells/well. The cells were treated with the compounds listed in Examples which were diluted in various concentrations. Upon completion of the compounds treatment, AGS, HCT116, SW626, DU145, NCI-H23, Hep3B, ACHN, BT-549, LNCaP, HEL92.1.7, and U266 cells were cultured at 37° C. under 5% CO2 for from 72 to 96 hours, and MDA-MB-231 and MDA-MB-468 cells were cultured at 37° C. in air for from 72 to 96 hours. Subsequently, the cells were observed under microscope and drug precipitation and particular findings were investigated and recorded. And then, the 96-well plate was placed at room temperature for 30 minutes, added with 20 μL/well of CellTiter-Glo solution (Cat No. G7573, Promega) and shaken for 10 minutes, followed by being subjected to the measurement using PHERAstar™ microplate reader (BMG LABTECH) according to the supplier's general luminometer protocol. Wells where only culture liquid added without cell plating were used as a negative control, whereas wells where culture liquid containing 0.1% DMSO instead of the compounds listed in Examples were used as a positive control.

LNCaP = assay: Cell growth inhibition assay, prostate cancer cell line LNCaP (medium with 10 ng/mL IL-6); details: Homo sapiens, medium supplemented with 10 ng/mL of IL-6, 10,000 cells/well
Description: as §1

STAT3 = target: T1, STAT3 (Homo sapiens, UniProt P40763); assay: STAT3 reporter gene assay (luciferase), LNCaP stable cell line (pSTAT3-TA-luc), IL-6 stimulation
T1 construct: plasmid pSTAT3-TA-luc), which contains a stably operating STAT3 promoter; endogenous in cells
Description: 1-1) Experiment on the Inhibition of STAT3 Activity
A human prostate cancer cell line (LNCaP stable cell line; plasmid pSTAT3-TA-luc), which contains a stably operating STAT3 promoter, was cultured in RPMI1640 medium (Cat No. 11875, Life Technologies) containing 10% fetal bovine serum (FBS) (Cat No. SH30396, Thermo Scientific) and 150 μg/mL G-418 solution (Cat No. 04 727 894 001, Roche). The reporter gene assay using LNCaP stable cell line was performed in RPMI1640 medium containing 3% DCC-FBS without G-418 solution. LNCaP stable cells were plated in two (2) white 96-well plates with 30,000 cells/50 μL in each well. The cells were cultured at 37° C., under 5% CO2 for 24 hours, and then treated with the compounds listed in Examples which were diluted in various concentrations. Subsequently, IL-6 was added to each well with a final concentration of 10 ng/mL. Upon completion of the treatment with the compounds and IL-6, the cells were cultured at 37° C., under 5% CO2 for from 24 to 48 hours. The plates were observed under microscope and drug precipitation and particular findings were investigated and recorded.
The luciferase assay and the cell viability assay were performed respectively with one of the two plates. For the luciferase assay, the liquid media in the 96-well plate was removed, and then, 20 μL of passive cell lysis buffer was added to each well. After shaking the plate for 30 minutes, luciferase activities of each well were measured in a PHERAstar™ microplate reader (BMG LABTECH) using a luciferase assay system (Cat No. E1501, Promega). For the cell viability assay, the 96-well plate was placed at room temperature for 30 minutes, added with 20 μL/well of CellTiter-Glo solution (Cat No. G7573, Promega), and shaken for 10 minutes in order to measure cytotoxicity caused by the compounds listed in Examples with a PHERAstar™ microplate reader (BMG LABTECH). Wells without 0.1% DMSO and stimulation were used as a negative control and wells with 0.1% DMSO and stimulation were used as a positive control.

T1 sequence (P40763 whole entry): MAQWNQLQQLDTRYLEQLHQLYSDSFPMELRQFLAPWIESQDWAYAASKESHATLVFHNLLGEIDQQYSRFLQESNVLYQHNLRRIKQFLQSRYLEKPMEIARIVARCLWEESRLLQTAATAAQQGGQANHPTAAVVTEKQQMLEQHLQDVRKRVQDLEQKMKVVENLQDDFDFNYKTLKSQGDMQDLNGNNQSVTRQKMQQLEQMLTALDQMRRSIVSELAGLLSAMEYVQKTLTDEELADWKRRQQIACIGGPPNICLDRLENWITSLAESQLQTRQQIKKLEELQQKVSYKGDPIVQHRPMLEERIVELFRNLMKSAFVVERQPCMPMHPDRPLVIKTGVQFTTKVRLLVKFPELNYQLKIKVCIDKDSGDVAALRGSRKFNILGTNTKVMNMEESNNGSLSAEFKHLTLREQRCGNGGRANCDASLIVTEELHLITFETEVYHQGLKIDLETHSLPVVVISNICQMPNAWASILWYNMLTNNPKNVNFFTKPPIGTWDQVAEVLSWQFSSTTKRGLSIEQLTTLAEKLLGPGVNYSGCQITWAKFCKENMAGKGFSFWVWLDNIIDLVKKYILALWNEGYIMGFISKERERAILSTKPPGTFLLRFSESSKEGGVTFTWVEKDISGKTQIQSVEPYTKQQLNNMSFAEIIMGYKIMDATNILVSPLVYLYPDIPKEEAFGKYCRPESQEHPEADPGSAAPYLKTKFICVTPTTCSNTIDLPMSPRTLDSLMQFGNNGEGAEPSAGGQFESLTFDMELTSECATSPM

IC50 (DU-145) [µM]	IC50 (LNCaP) [µM]	IC50 (STAT3) [µM]	Structure (SMILES)
0.063	0.079	0.12	CS(=O)(=O)Nc1ccc2sc(C(=O)Nc3cc(Cl)cc(Oc4ccc(Cl)c(F)c4)c3)cc2c1 [Example 466, N-(3-chloro-5-(4-chloro-3-fluorophenoxy)phenyl)-5-(methylsulfonamido)benzo[b]thiophene-2-carboxamide]
> 1.1	> 1.1	> 10	CS(=O)(=O)Nc1cc2cc(C(=O)Nc3cc(Cl)cc(Oc4cc(O)cc(Cl)c4)c3)sc2cc1Cl [Example 475, 6-chloro-N-(3-chloro-5-(3-chloro-5-hydroxyphenoxy)phenyl)-5-(methylsulfonamido)benzo[b]thiophene-2-carboxamide]
0.01	0.013	0.025	CS(=O)(=O)Nc1cc2cc(C(=O)Nc3cc(Cl)cc(Oc4ccc(Cl)c(F)c4)c3)sc2cc1Cl [Example 477, 6-chloro-N-(3-chloro-5-(4-chloro-3-fluorophenoxy)phenyl)-5-(methylsulfonamido)benzo[b]thiophene-2-carboxamide]
0.005		0.064	CC(C)(c1cccc(F)c1)c1cc(Cl)cc(NC(=O)c2cc3cc(NS(C)(=O)=O)ccc3s2)c1 [Example 65, N-(3-chloro-5-(2-(3-fluorophenyl)propan-2-yl)phenyl)-5-(methylsulfonamido)benzo[b]thiophene-2-carboxamide]
> 1.1	> 1.1	6.1	CC(C)Oc1cc(OC(F)(F)F)cc(C(C)(C)c2cc(Cl)cc(NC(=O)C3=Cc4cc(NS(C)(=O)=O)ccc4S3(=O)=O)c2)c1 [Example 222, N-(3-chloro-5-(2-(3-isopropoxy-5-(trifluoromethoxy)phenyl)propan-2-yl)phenyl)-5-(methylsulfonamido)benzo[b]thiophene-2-carboxamide 1,1-dioxide]
> 1.1		4.6	CC(C)Oc1cc(OC(F)(F)F)cc(C(C)(C)c2cc(Cl)cc(NC(=O)c3cc(NS(C)(=O)=O)cs3)c2)c1 [Example 102, N-(3-chloro-5-(2-(3-isopropoxy-5-(trifluoromethoxy)phenyl)propan-2-yl)phenyl)-4-(methylsulfonamido)thiophene-2-carboxamide]
0.17		2.1	CC(C)Oc1cc(OC(F)(F)F)cc(C(C)(C)c2cc(Cl)cc(NC(=O)c3cc4c(s3)CCN(S(C)(=O)=O)C4)c2)c1 [Example 97, N-(3-chloro-5-(2-(3-isopropoxy-5-(trifluoromethoxy)phenyl)propan-2-yl)phenyl)-5-(methylsulfonyl)-4,5,6,7-tetrahydrothieno[3,2-c]pyridine-2-carboxamide]
		0.008	CS(=O)(=O)Nc1cc2cc(C(=O)Nc3cc(Cl)nc(Oc4ccc(Cl)nc4)c3)sc2cc1Cl [Example 492]
		0.14	CS(=O)(=O)Nc1ccc2sc(C(=O)Nc3cc(Cl)nc(Oc4ccc(C(F)(F)F)nc4)c3)cc2c1 [Example 493, N-(2-chloro-6-((6-(trifluoromethyl)pyridin-3-yl)oxy)pyridin-4-yl)-5-(methylsulfonamido)benzo[b]thiophene-2-carboxamide]
		0.005	COc1cc2sc(C(=O)Nc3cc(Cl)cc(C(C)(C)c4ccc(Cl)cc4)c3)cc2cc1NS(C)(=O)=O [Example 497, N-(3-chloro-5-(2-(4-chlorophenyl)propan-2-yl)phenyl)-6-methoxy-5-(methylsulfonamido)benzo[b]thiophene-2-carboxamide]
		0.06	COc1cc2sc(C(=O)Nc3cc(Cl)cc(Oc4ccc(Cl)cc4)c3)cc2cc1NS(C)(=O)=O [Example 498, N-(3-chloro-5-(4-chlorophenoxy)phenyl)-6-methoxy-5-(methylsulfonamido)benzo[b]thiophene-2-carboxamide]
	2	1.1	CS(=O)(=O)Nc1ccc2[nH]c(C(=O)Nc3cccc(-c4ccccc4C(F)(F)F)c3)cc2c1 [Example 259, 5-(methylsulfonamido)-N-(2′-(trifluoromethyl)-[1,1′-biphenyl]-3-yl)-1H-indole-2-carboxamide]

The next lines start with the molecule.

Structure (SMILES)	IC50 (DU-145) [µM]	IC50 (LNCaP) [µM]	IC50 (STAT3) [µM]
CS(=O)(=O)Nc1cc2cc(C(=O)Nc3cc(Cl)cc(OC4CCCCC4)c3)sc2cc1Cl [Example 486, 6-chloro-N-(3-chloro-5-(cyclohexyloxy)phenyl)-5-(methylsulfonamido)benzo[b]thiophene-2-carboxamide]	0.048	0.083	0.11
CS(=O)(=O)Nc1ccc2sc(C(=O)Nc3cc(Cl)cc(-c4ccsc4)c3)cc2c1 [Example 332, N-(3-chloro-5-(thiophen-3-yl)phenyl)-5-(methylsulfonamido)benzo[b]thiophene-2-carboxamide]	0.042	0.17	0.061
CS(=O)(=O)Nc1cc2cc(C(=O)Nc3cc(Cl)cc(Oc4ccc(F)c(Cl)c4)c3)sc2cc1Cl [Example 476, 6-chloro-N-(3-chloro-5-(3-chloro-4-fluorophenoxy)phenyl)-5-(methylsulfonamido)benzo[b]thiophene-2-carboxamide]	0.005	0.022	0.021
CS(=O)(=O)Nc1cc2cc(C(=O)Nc3cc(Cl)nc(Oc4ccc(C(F)(F)F)cc4)c3)sc2cc1Cl [Example 496, 6-chloro-N-(2-chloro-6-(4-(trifluoromethyl)phenoxy)pyridin-4-yl)-5-(methylsulfonamido)benzo[b]thiophene-2-carboxamide]			0.009
CS(=O)(=O)Nc1ccc2sc(C(=O)Nc3cc(Cl)nc(Oc4ccc(C(F)(F)F)cc4)c3)cc2c1 [Example 495, N-(2-chloro-6-(4-(trifluoromethyl)phenoxy)pyridin-4-yl)-5-(methylsulfonamido)benzo[b]thiophene-2-carboxamide]			0.08
CS(=O)(=O)Nc1cc2cc(C(=O)Nc3cc(Cl)nc(Oc4ccc(Cl)cc4)c3)sc2cc1Cl [Example 490, 6-chloro-N-(2-chloro-6-(4-chlorophenoxy)pyridin-4-yl)-5-(methylsulfonamido)benzo[b]thiophene-2-carboxamide]			0.016
CC(C)Oc1cc(OC(F)(F)F)cc(C(C)(C)c2cc(Br)cc(NC(=O)c3cc4cc(OP(=O)(O)O)ccc4s3)c2)c1 [Example 192, 2-((3-bromo-5-(2-(3-isopropoxy-5-(trifluoromethoxy)phenyl)propan-2-yl)phenyl)carbamoyl)benzo[b]thiophen-5-yl dihydrogen phosphate]			0.75
CS(=O)(=O)Nc1cc2cc(C(=O)Nc3cc(Cl)nc(Oc4ccc(C(F)(F)F)nc4)c3)sc2cc1Cl [Example 494, 6-chloro-N-(2-chloro-6-((6-(trifluoromethyl)pyridin-3-yl)oxy)pyridin-4-yl)-5-(methylsulfonamido)benzo[b]thiophene-2-carboxamide]			0.018
CS(=O)(=O)Nc1ccc2sc(C(=O)Nc3cc(Cl)nc(Oc4ccc(Cl)nc4)c3)cc2c1 [Example 491, N-(2-chloro-6-((6-chloropyridin-3-yl)oxy)pyridin-4-yl)-5-(methylsulfonamido)benzo[b]thiophene-2-carboxamide]			0.13

Source: patent US10562912B2 (C&C Research Laboratories, priority 2013, dated 2020)
